Source: patent US20170240864A1, “METHODS TO GENERATE PANCREATIC BETA CELLS FROM SKIN CELLS” (UNIVERSITY OF IOWA RESEARCH FOUNDATION, priority 2016, published 2017)
“Also recorded” adds a separate entry of the source.

How the values were obtained:
[1] = test system: T1D DE cells (T1D iPS cell-derived); assay: Pdx1 flow cytometry at end of Stage 4, T1D cultures; format: cell-based, human; settings: T1D DE cells demethylated on day 4 for 18 h
Protocol: (§1) After completing 4 days of differentiation in DE differentiation media, the cells were treated with fresh media supplemented with 5-aza-DC. The 5-aza-DC was treated for 18 hours, which spanned the last day of DE differentiation, before being washed with warm DMEM F/12 three times and harvested as described in the next section for initiating 3D differentiation into pancreatic precursor cells.
(§2) For assessment of expression of pancreatic transcription factors (Pdx1, Nkx6.1 and NeuroD1), matrigel-seeded differentiating cell clusters on differentiation D15 (end of stage 4) were recovered by treatment with Dispase (Catalog Number: 354235, BD Biosciences, San Jose, Calif.) for 5 minutes at 37° C., followed by gentle suspension to further break down the matrigel. After washing with 1×PBS and centrifugation, the cell clusters were incubated with TrypLE Express for 5-10 minutes at room temperature. Following gentle resuspension and centrifugation, the cells were permeabilized using methanol as described below. The cells were fixed in 2% paraformaldehyde in PBS for 10 minutes at 37° C., followed by centrifugation, and resuspension of the vortexed cells in 1 mL of chilled Perm Buffer III (Catalog Number: 558050, BD Biosciences, San Jose, Calif.). The cells were incubated for 30 minutes on ice in sealed tubes. […]

[2] = test system: ND iPS cells; assay: Insulin flow cytometry at end of Stage 5, ND cultures; format: cell-based, human
Protocol: (§3) FIGS. 18A-18B. […] To address whether demethylation enhances the yield of Pdx1+ cells and insulin+ cells from ND iPS cells, in parallel, differentiations of ND iPS cells, treated with or without 10 nM 5-aza-DC for 18 h on day 4 of differentiation (n=2) were established. Controls for staining were iPS cells (negative) and βTC3 mouse insulinoma cells (positive). […] Thus, demethylation enhances the differentiation into IPCs of specifically T1D iPS cells but not ND iPS cells. This is likely because there are specific gene loci on T1D cells that are aberrantly methylated, which is corrected by transient 5-aza-DC treatment.
For assessment of expression of pancreatic hormones insulin and glucagon, matrigel-seeded differentiating cell clusters on differentiation D27 (end of stage 5) were recovered by treatment with Dispase (Catalog Number: 354235, BD Biosciences, San Jose, Calif.) for 5 minutes at 37° C., followed by gentle suspension to further break down the matrigel. After washing with 1×PBS and centrifugation, the cell clusters were incubated with TrypLE Express for 5-10 minutes at room temperature. Following gentle resuspension and centrifugation, the cells were permeabilized via saponin using the BD Cytofix/Cytoperm Kit (Catalog Number: 554714, BD Biosciences, San Jose, Calif.). […]

[3] = test system: T1D DE cells (T1D iPS cell-derived); assay: Insulin and glucagon flow cytometry at end of Stage 5, T1D cultures; format: cell-based, human; settings: for number of glucagon-expressing cells: T1D cultures, concentration-dependent
Protocol: as §1
For assessment of expression of pancreatic hormones insulin and glucagon, matrigel-seeded differentiating cell clusters on differentiation D27 (end of stage 5) were recovered by treatment with Dispase (Catalog Number: 354235, BD Biosciences, San Jose, Calif.) for 5 minutes at 37° C., followed by gentle suspension to further break down the matrigel. After washing with 1×PBS and centrifugation, the cell clusters were incubated with TrypLE Express for 5-10 minutes at room temperature. Following gentle resuspension and centrifugation, the cells were permeabilized via saponin using the BD Cytofix/Cytoperm Kit (Catalog Number: 554714, BD Biosciences, San Jose, Calif.). For insulin staining, the cells were incubated with anti-inulin-PE for 30 minutes in the dark at room temperature before being washed and resuspended in 1×PBS for flow cytometric analysis. For glucagon staining, the cells were incubated with purified rabbit anti-human glucagon for 30 minutes in the dark at room temperature before being washed and incubated with anti-rabbit APC (1:100) for an additional 30 minutes in the dark at room temperature. Subsequently, the cells were washed and resuspended in 1×PBS for flow cytometric analysis.

[4] = test system: ND iPS cells; assay: Pdx1 flow cytometry, ND cultures; format: cell-based, human; settings: 10 nM for 18 h on day 4
Protocol: as §3
as §2, with “below.” for “below. The cells were fixed in 2% paraformaldehyde in PBS for 10 minutes at 37° C., followed by centrifugation, and resuspension of the vortexed cells in 1 mL of chilled Perm Buffer III (Catalog Number: 558050, BD Biosciences, San Jose, Calif.). The cells were incubated for 30 minutes on ice in sealed tubes.”

[5] = test system: 5-methylcytosine content of gDNA of T1D iPS cells; assay: Dot blot for 5-methylcytosine on gDNA; format: cell-based, human
Protocol: FIGS. 14A-14B. Selection of the optimal dose of 5-aza-DC to demethylate iPS cells while ensuring maximal cell viability. FIG. 14A) Every cell type has a unique tolerance to 5-aza-DC, which is toxic at high doses. In order to identify an optimal dose of 5-aza-DC that would maintain integrity of the cells while demethylating effectively, a dose screen experiment was conducted on T1D iPS cells (n=2), observing the quality of the colonies and degree of cell death over 4 days after 18 hours of treatment with various doses of 5-aza-DC. […] FIG. 14B) To confirm that those low doses would still demethylate cells, a dot blot for 5-methylcytosine was performed on gDNA isolated from untreated T1D iPS cells or iPS cells that were treated with 1 nM or 10 nM 5-aza-DC (n=3).
To detect the effectiveness of demethylation treatment, dot blots were performed on genomic DNA (gDNA) samples isolated from demethylated and nondemethylated control iPS cells to determine levels of 5-methylcytosine (5-MC). gDNA was isolated using the DNeasy Blood & Tissue Kit (Qiagen, Valencia, Calif.). […] Finally, HRP signal was detected with a 5 minute incubation at room temperature in Amersham ECL Prime solution (Catalog Number: RPN2232, GE Healthcare, Pittsburgh, Pa.) and processed via X-ray films.

[6] = test system: T1D iPS cells differentiating into DE cells; assay: Definitive endoderm marker flow cytometry after demethylation (CXCR4, Sox17, PDGFR-α); format: cell-based, human
Text: FIG. 15. Demethylation on DO of differentiation arrests cells in a CXCR4+ PDGFRα+ Sox17− mesendodermal state. In order to identify the optimal time point at which demethylation should be initiated, two parallel differentiations of T1D iPS cells into DE cells were established. In one differentiation, the culture was exposed to 5-aza-DC on day 0 (which is the day that DE differentiation is initiated), whereas the other culture was demethylated at day 4 of differentiation (which is the last day of DE culture). At the end of the differentiations, the efficacy of DE cell differentiation was determined by studying the expression of CXCR4, PDGFR-α, and Sox17. Undifferentiated iPS cells (red plot) served as a negative control for all of these cell markers. […] In contrast, demethylation of the cells on day 4 (blue plot) generated >90% CXCR4+ Sox17+ PDGFR-α− cells, representing true DE cells. […] Besides, after formation of the DE, the cells have a higher proliferative rate. Thus, temporal control of the demethylation treatment ensures enhanced differentiation outcomes.
as §1
For assessment of DE differentiation efficiency, cells from D5 of differentiation (end of stage 1) were incubated at room temperature for 2-5 minutes with TrypLE Express (Invitrogen, Grand Island, N.Y.), dissociated into a single cell suspension, filtered through a 70 μm mesh and washed with 1×PBS (Invitrogen, Grand Island, N.Y.) before being distributed into FACS tubes. […]

[7] = test system: T1D iPS cell-derived cell clusters; assay: Cluster morphology and dithizone staining of T1D IPC cultures; format: cell-based, human
Protocol: Freshly prepared dithizone solution was used for all experiments. First, 20 mg of dithizone (Catalog Number: D5130, Sigma-Aldrich, St. Louis, Mo.) was added to 0.6 mL of 95% ethanol in a 15 mL conical tube. Subsequently, 1-5 drops of ammonium hydroxide was added and the resulting orange stock mixture was vortexed thoroughly until completely dissolved. 0.3 mL of this stock solution was dispensed in 99.7 mL of 1×PBS and the pH was adjusted to 7.4 with 1N HCl. Islets (supplied by the IIDP) or picked IPC clusters were added to separate wells each containing 200 μL of the final dithizone solution in a 96 well plate. The cell clusters were incubated for 2-5 minutes before images were captured using a standard light microscope (Nikon Eclipse, TS100) attached to a color camera.
A full differentiation of T1D iPS cells into IPCs was initiated, demethylating the DE cells on day 4 for 18 hours before transferring them onto matrigel. A striking impact of the demethylation treatment in the T1D cultures was observed. Typically, T1D iPS cells gave rise to a disorganized mix of cysts and spheroids, with a dominant presence of hollow cysts. […] Next, these cell clusters were stained with dithizone, which when positive points to the presence of insulin Shiroi et al., 2002).

[8] = test system: Human iPS cell-derived IPCs; assay: Mitochondria stress test (oxygen consumption rate); format: cell-based; settings: low glucose (2.8 mM)
Protocol: Oxygen consumption rate (OCR) was measured by using an intact-cell respirometer designed for adherent cells (Seahorse Bioscience, North Billerica, Mass.). Human iPS cell-derived IPCs were grown in special 24-well plates designed for respirometer analyses. OCR was determined in assay medium consisting of medium M199 lacking sodium bicarbonate for 60 minutes. Before analysis, IPCs within individual wells were exposed to either, low glucose (2.8 mM), high glucose (20 mM), high glucose (20 mM)+Nifedipine. […] The FCCP concentration used in these studies was determined by titration with differing amounts of the uncoupler by using the least amount required for maximal uncoupling in cells unexposed to MTQAs. OCR (pmol per minute per microgram of DNA) was determined as the average number recorded during time periods defined as intervals between the above sequential injections. Basal OCR was determined as respiration before injection of any compounds minus non-mitochondrial OCR. OCRATP was determined as basal OCR minus OCR after oligomycin injection. OCR accountable by the proton leak was calculated as OCR in the presence of oligomycin minus non-mitochondrial OCR. Maximal uncoupled respiration was calculated as OCR after FCCP minus non-mitochondrial OCR. […] ECAR was quantified simply as the recorded acidification rate during the respiratory conditions delineated above.

[9] = demethylation on day 4 of differentiation

Structure (SMILES)	Pdx1+ cells at the end of Stage 4 [1] [%]	yield of insulin-expressing cells, treated versus untreated ([2]; 10 nM for 18 h on day 4)	yield of Insulin+ cells at the end of Stage 5 ([2]; unchanged after treatment) [%]	insulin-expressing cells ([3]; T1D cultures treated with 5-Aza-DC, n=5)	number of glucagon-expressing cells [3]	number of glucagon-expressing cells ([3]; listed as 5-Aza-DC)	insulin+ cells, highest measured in some cultures ([3]; T1D, 10 nM, repeated experiments) [%]	cells expressing insulin ([3]; T1D, dose of 10 nM) [%]	augmentation of yield of IPCs versus untreated ([3]; T1D-1 DE cells, pooled experiments, untreated n=3, demethylated n=5) [fold]	yield of Pdx1+ cells, treated versus untreated [4]	demethylation (5-methylcytosine dot blot) ([5]; 1 nM)	demethylation (5-methylcytosine dot blot) ([5]; 10 nM)	marker phenotype of resulting cells ([6]; demethylation on day 0 of differentiation)	CXCR4+ Sox17+ PDGFR-α− cells [6, 9] [%]	marker phenotype of resulting cells [6, 9]	cluster morphology ([7]; T1D DE cells treated on day 4, both doses (1 nM, 10 nM))	dithizone staining of clusters ([7]; T1D cultures treated with 5-aza-DC)	effect on oxygen consumption [8]
Nc1ncn([C@H]2C[C@H](O)[C@@H](CO)O2)c(=O)n1 [5-aza-DC, 5-aza-2′-deoxycytidine]	> 95	equivalent yield	25	56.7-59.4%	nearly all the glucagon secreting cells are gone	drastic decline	≤ 65	56	~4	not significantly different	effectively demethylate	effectively demethylate	arrested in the immature CXCR4^+ PDGFRα^+ Sox17^− mesendodermal state; also recorded: CXCR4+ PDGFR-α+ Sox17−	> 90	pure population of CXCR4^+ Sox17^+ PDGFRα^− DE cells	promoted the formation of compact cell clusters that uniquely resembled human islets; also recorded: promotes the formation of compact clusters	strong red color	
CC(C)Cn1c(=O)n(C)c(=O)c2[nH]cnc21 [IBMX, 3-isobutyl-1-methylxanthine]																		could not be increased; also recorded: could not be elevated
